From patent publication US20170226483A1, “Methods and Vectors to Produce Vector Free Induced Pluripotent Stem Cells” (Lonza Walkersville, Inc., priority 2016, published 2017)

Columns and labels:
[1] = tested on: hiPSC that do not express the respective suicide gene; experiment: Cytotoxic effect of the suicide gene substrate on hPSCs that do not express the suicide gene (alkaline phosphatase staining); type: cell-based, human; details: 48 hours
Description: Cell were fixed and stained for alkaline phosphatase activity after 48 hr. […] Additional experiments will determine the required levels of ganciclovir and 5-FC in hiPSCs that express the suicide gene, to determine the minimum concentration required.

K3T3 sarcoma tumors = details: BALB/c mice bearing K3T3 sarcoma tumors produced by the cell lines; cited from earlier work
[2] = tested on: BALB/c murine K3T3 sarcoma cell lines with herpes simplex virus thymidine kinase gene; details: K3T3 sarcoma cell lines carrying HSV thymidine kinase gene; cited from earlier work

Row | SMILES | cytotoxic effect on hiPSCs ([1]; 5-FC 1, 10 and 100 μM) | effect on tumors in vivo (K3T3 sarcoma tumors) | cytotoxic effect on hiPSCs ([1]; ganciclovir 0.2, 2 or 20 μM) | effect on tumor cells in vitro [2]
1 | Nc1nc(=O)[nH]cc1F [Vector 5-FC, 5-Flurocytosine] | no cytotoxic effect | – | – | –
2 | Nc1nc(O)c2ncn(COC(CO)CO)c2n1 [ganciclovir, Ganciclovir] | – | destruction of the tumors | no cytotoxic effect | destruction of the tumor cells
